How the values were obtained:
ocular structures [1] = conditions: prior-art dyes, general statement; cited from earlier work
ocular structures [2] = experiment: Toxicity and permanence of staining of dyes used in the eye; conditions: trypan blue, general statement
From the text: A number of dyes have been used in the eye to identify vital structures, examples of dyes used include indocyanin green, rose bengal, gentian violet and methylene blue.

[3] = system: epiretinal and internal limiting membrane of the retina; experiment: Staining of the inner limiting membrane with trypan blue solution during pars plana vitrectomy; assay type: in vivo, patient; conditions: 0.1% w/w in physiological saline, instilled, left for 30 seconds, aspirated and irrigated; Patients A and B
From the text: In respect of retinal surgery for the removal of aberrant membranes or for the peeling of epiretinal and internal limiting membranes of the retina, the vitreous gel of the eye is removed by a technique known as pars plana vitrectomy, with stripping of the outer (cortical) vitreous. In place of the vitreous gel, infusion fluid is introduced into the eye via an infusion port. The inner limiting membrane may then be stained with trypan blue solution (for example 0.1% w/w) instilled with a fine silicone-tipped extrusion needle, left for 30 seconds to stain the membrane, aspirated, followed by irrigation of the area with balanced salt (physiological) solution. Peeling of the membrane proceeds and is greatly facilitated because of improved visualization of the extent of the membrane. The procedure is then completed in standard fashion with fluid-gas exchange.
Patient A required peeling of epiretinal and internal limiting membrane of the retina as part of the surgical management of premacular fibrosis and macular hole conditions.
Patient B is a diabetic suffering from severe diabetic retinopathy, with proliferative vitreo retinopathy.
A 0.1% w/w solution of trypan blue in physiological saline is prepared.
In each patient the vitreous gel of the eye is removed by pars plana vitrectomy an established procedure in the art, which involves stripping of the outer (cortical) vitreous. […]

trabecular meshwork = experiment: Marking of the trabecular meshwork with trypan blue before laser treatment in glaucoma; assay type: in vivo; conditions: Patient C
From the text: Eye pressure is regulated in part by flow of ocular fluid (aqueous humour) through a biological valve, known as the trabecular meshwork. In glaucoma, a pathological condition where the eye pressure is raised, the eye pressure may be lowered by application of a laser energy source to the trabecular meshwork. In the prior art the success of this technique generally depends upon the presence of sufficient natural pigmentation of the trabecular meshwork which will absorb the laser energy. Using trypan blue to mark the trabecular meshwork improves identification of this structure, and the uptake of laser energy. A trypan blue solution is instilled into the eye in the location of the trabecular meshwork, and after a short time period such as from 10 seconds to one minute, the trypan blue solution is removed and the area generally irrigated to remove excess trypan blue. The now marked trabecular meshwork can be readily visually distinguished, and laser application can take place. Other ocular structures may be marked in the same manner so as to enable identification and if necessary surgical or other treatment.
Patient C is a glaucoma sufferer who has elevated eye pressure. 0.1% trypan blue is instilled into the eye of patient C through a cannular, introducing the trypan blue solution in the area with trabecular meshwork.

Structure (SMILES): CN(C)c1ccc2nc3ccc(=[N+](C)C)cc-3sc2c1 [methylene blue]
- toxicity to ocular structures (ocular structures [1]): toxic to ocular structures

Structure (SMILES): Cc1cc(-c2ccc(/N=N/c3c(S(=O)(=O)O)cc4cc(S(=O)(=O)O)cc(N)c4c3O)c(C)c2)ccc1/N=N/c1c(S(=O)(=O)O)cc2cc(S(=O)(=O)O)cc(N)c2c1O [trypan blue]
- reversibility of staining of eye structures (ocular structures [2]): does not irreversibly stain eye structures
- toxicity in the eye (ocular structures [2]): non-toxic
- visual identification of membranes after staining [3]: readily identified
- visualization of the trabecular meshwork (trabecular meshwork; 0.1% trypan blue instilled through a cannular, glaucoma): visualized by simple visual identification
- eye pressure after laser treatment (trabecular meshwork; 0.1% trypan blue marking followed by laser light, elevated eye pressure): Successful lowering of eye pressure
- uptake of laser energy (trabecular meshwork; 0.1% trypan blue, after irrigation, area subject to laser light): improving uptake of laser energy

Structure (SMILES): O=C([O-])c1c(Cl)c(Cl)c(Cl)c(Cl)c1-c1c2cc(I)c(=O)c(I)c-2oc2c(I)c([O-])c(I)cc12.[Na+].[Na+] [rose bengal]
- toxicity to ocular structures (ocular structures [1]): toxic to ocular structures

Structure (SMILES): CN(C)c1ccc(C(=C2C=CC(=[N+](C)C)C=C2)c2ccc(N(C)C)cc2)cc1 [gentian violet]
- toxicity to ocular structures (ocular structures [1]): toxic to ocular structures

Structure (SMILES): CC1(C)C(/C=C/C=C/C=C/C=C2\N(CCCCS(=O)(=O)[O-])c3ccc4ccccc4c3C2(C)C)=[N+](CCCCS(=O)(=O)[O-])c2ccc3ccccc3c21.[Na+] [indocyanin green]
- toxicity to ocular structures (ocular structures [1]): toxic to ocular structures
